Results from PubChem BioAssay AID248 (DTP/NCI, 2004).
Several values for one entry are separate records, joined by “and”; a condition that tells them apart may be missing. Equal values may be shown once. Toxic doses and inconclusive results are not listed.

Tested on: L1210 leukemia ip in BDF1 mice, survival T/C
Test: NCI In Vivo Anticancer Drug Screen. Data for tumor model L1210 Leukemia (intraperitoneal) in B6D2F1 (BDF1) mice
Conditions: endpoint: mean survival time, higher = longer survival
Outline: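 In this screen, tumor-bearing mice given compound are compared to those given vehicle, and their survival values are reported as a treated-to-control quotient.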

[1] = dose: 50.0 mg/kg/injection, schedule: Q01DX001 (ip), vehicle: saline
[2] = dose: 100.0 mg/kg/injection, schedule: Q01DX001 (ip), vehicle: saline
[3] = dose: 200.0 mg/kg/injection, schedule: Q01DX001 (ip), vehicle: saline
[4] = dose: 100.0 mg/kg/injection, schedule: Q01DX009 (ip), vehicle: saline
[5] = dose: 100.0 mg/kg/injection, schedule: Q04DX003 (ip), vehicle: saline
[6] = dose: 200.0 mg/kg/injection, schedule: Q01DX009 (ip), vehicle: saline
[7] = dose: 200.0 mg/kg/injection, schedule: Q04DX003 (ip), vehicle: saline
[8] = dose: 400.0 mg/kg/injection, schedule: Q01DX009 (ip), vehicle: saline
[9] = dose: 400.0 mg/kg/injection, schedule: Q04DX003 (ip), vehicle: saline
[10] = dose: 100.0 mg/kg/injection, schedule: Q04DX003 (ip), vehicle: saline with Tween-80
[11] = dose: 200.0 mg/kg/injection, schedule: Q04DX003 (ip), vehicle: saline with Tween-80
[12] = dose: 400.0 mg/kg/injection, schedule: Q04DX003 (ip), vehicle: saline with Tween-80
[13] = dose: 150.0 mg/kg/injection, schedule: Q01DX001 (ip), vehicle: saline
[14] = dose: 100.0 mg/kg/injection, schedule: Q01DX001 (ip), vehicle: carboxymethylcellulose (CMC)
[15] = dose: 200.0 mg/kg/injection, schedule: Q01DX001 (ip), vehicle: carboxymethylcellulose (CMC)

## O=C(CNC(=O)OCc1ccccc1)Nc1ccc(S(=O)(=O)c2ccc(NC(=O)CNC(=O)OCc3ccccc3)cc2)cc1
[1]
  T/C: 96 % of control
[2]
  T/C: 96 % of control
[3]
  T/C: 96 % of control
dose: 400.0 mg/kg/injection, schedule: Q01DX001 (ip), vehicle: saline
  T/C: 90 % of control

## CCC1(C)CC=C2C(=CCC3C(C)(CO)CCCC23C)C1 (stereo not drawn)
dose: 50.0 mg/kg/injection, schedule: Q04DX002 (ip), vehicle: other
  T/C: 104 % of control
dose: 100.0 mg/kg/injection, schedule: Q04DX002 (ip), vehicle: other
  T/C: 93 % of control
dose: 200.0 mg/kg/injection, schedule: Q04DX002 (ip), vehicle: other
  T/C: 96 % of control

## CCOC(=O)C(=CNc1cc(N)nc(SC)n1)C(=O)OCC
dose: 100.0 mg/kg/injection, schedule: Q04DX002 (ip), vehicle: Klucel (hydroxypropylcellulose) (HPC)
  T/C: 114 % of control
dose: 200.0 mg/kg/injection, schedule: Q04DX002 (ip), vehicle: Klucel (hydroxypropylcellulose) (HPC)
  T/C: 103 % of control
dose: 400.0 mg/kg/injection, schedule: Q04DX002 (ip), vehicle: Klucel (hydroxypropylcellulose) (HPC)
  T/C: 100 % of control

## O=c1[nH]cc(-c2ccccc2)c(=O)[nH]1
[4]
  T/C: 98 % of control
[5]
  T/C: 95 % of control
[6]
  T/C: 104 % of control
[7]
  T/C: 95 % of control
[8]
  T/C: 104 % of control
[9]
  T/C: 101 % of control

## O=C(O)CCCC(=O)NC1CC2c3ccccc3C1c1ccccc12 (stereo not drawn)
dose: 100.0 mg/kg/injection, schedule: Q01DX009 (ip), vehicle: saline sonified
  T/C: 101 % of control
dose: 100.0 mg/kg/injection, schedule: Q04DX003 (ip), vehicle: Klucel (hydroxypropylcellulose) (HPC)
  T/C: 94 % of control
dose: 200.0 mg/kg/injection, schedule: Q01DX009 (ip), vehicle: saline sonified
  T/C: 100 % of control
dose: 200.0 mg/kg/injection, schedule: Q04DX003 (ip), vehicle: Klucel (hydroxypropylcellulose) (HPC)
  T/C: 96 % of control
dose: 400.0 mg/kg/injection, schedule: Q01DX009 (ip), vehicle: saline sonified
  T/C: 100 % of control
dose: 400.0 mg/kg/injection, schedule: Q04DX003 (ip), vehicle: Klucel (hydroxypropylcellulose) (HPC)
  T/C: 91 % of control

## COC(=O)c1cccc(C(=O)CC(=O)c2ccccc2)c1
dose: 100.0 mg/kg/injection, schedule: Q01DX009 (ip), vehicle: Klucel (hydroxypropylcellulose) (HPC)
  T/C: 90 % of control
dose: 200.0 mg/kg/injection, schedule: Q01DX009 (ip), vehicle: Klucel (hydroxypropylcellulose) (HPC)
  T/C: 95 % of control
dose: 400.0 mg/kg/injection, schedule: Q01DX009 (ip), vehicle: Klucel (hydroxypropylcellulose) (HPC)
  T/C: 88 % of control

## CCOC(=O)C(C)(C)CN(CC(C)(C)C(=O)OCC)C(C)(C)C
dose: 100.0 mg/kg/injection, schedule: Q01DX001 (ip), vehicle: saline sonified
  T/C: 87 % of control
dose: 200.0 mg/kg/injection, schedule: Q01DX001 (ip), vehicle: saline sonified
  T/C: 93 % of control
dose: 400.0 mg/kg/injection, schedule: Q01DX001 (ip), vehicle: saline sonified
  T/C: 91 % of control

## Cc1nc(N)nc(N)c1[N+](=O)[O-]
dose: 65.0 mg/kg/injection, schedule: Q01DX Z (oral), vehicle: methylcellulose (MC)
  T/C: 105 % of control
dose: 125.0 mg/kg/injection, schedule: Q01DX Z (oral), vehicle: methylcellulose (MC)
  T/C: 100 % of control
dose: 250.0 mg/kg/injection, schedule: Q01DX Z (oral), vehicle: methylcellulose (MC)
  T/C: 100 % of control

## CCNC(=O)CCC(N)C(=O)O (stereo not drawn)
[4]
  T/C: 97 % of control
[5]
  T/C: 97 % of control
[6]
  T/C: 97 % of control
[7]
  T/C: 101 % of control
[8]
  T/C: 95 % of control
[9]
  T/C: 101 % of control

## COc1c2c(cc3c1OCO3)[C@@]13CCN(C2)[C@@H]1CC=C[C@H]3O
dose: 5.0 mg/kg/injection, schedule: Q01DX001 (ip), vehicle: carboxymethylcellulose (CMC)
  T/C: 105 % of control
dose: 10.0 mg/kg/injection, schedule: Q01DX001 (ip), vehicle: carboxymethylcellulose (CMC)
  T/C: 105 % of control

## CC(CN(C)C)C(O)(c1ccccc1)c1ccccc1 (stereo not drawn)
[1]
  T/C: 98 % of control
[2]
  T/C: 98 % of control
[3]
  T/C: 104 % of control

## Cc1ccc2[nH]c(=S)n(-c3ccc(Cl)cc3)c(=O)c2c1
dose: 100.0 mg/kg/injection, schedule: Q04DX003 (ip), vehicle: carboxymethylcellulose (CMC)
  T/C: 97 % of control
dose: 200.0 mg/kg/injection, schedule: Q04DX003 (ip), vehicle: carboxymethylcellulose (CMC)
  T/C: 88 % of control
dose: 400.0 mg/kg/injection, schedule: Q04DX003 (ip), vehicle: carboxymethylcellulose (CMC)
  T/C: 93 % of control

## CC1(C)C2CC=C(N3CCCCC3)C1C2 (stereo not drawn)
[10]
  T/C: 96 % of control
[11]
  T/C: 96 % of control
[12]
  T/C: 98 % of control

## COc1ccc(C(=O)O)nc1C
dose: 75.0 mg/kg/injection, schedule: Q01DX001 (ip), vehicle: acetone
  T/C: 98 % of control
dose: 150.0 mg/kg/injection, schedule: Q01DX001 (ip), vehicle: acetone
  T/C: 101 % of control
dose: 300.0 mg/kg/injection, schedule: Q01DX001 (ip), vehicle: acetone
  T/C: 98 % of control

## Nc1ncnc2nc(SC3OC(CO)C(O)C3O)[nH]c12 (stereo not drawn)
[13]
  T/C: 100 % of control
dose: 300.0 mg/kg/injection, schedule: Q01DX001 (ip), vehicle: saline
  T/C: 100 % of control

## O=C(CC(O)C(Cl)(Cl)Cl)CC(O)C(Cl)(Cl)Cl (stereo not drawn)
dose: 100.0 mg/kg/injection, schedule: Q04DX002 (ip), vehicle: saline
  T/C: 96 % of control
dose: 200.0 mg/kg/injection, schedule: Q04DX002 (ip), vehicle: saline
  T/C: 107 % of control

## CCCC(NC)C(CC)CN (stereo not drawn)
dose: 50.0 mg/kg/injection, schedule: Q01DX001 (ip), vehicle: carboxymethylcellulose (CMC)
  T/C: 105 % of control and 120 % of control
dose: 75.0 mg/kg/injection, schedule: Q01DX001 (ip), vehicle: saline
  T/C: 97 % of control
dose: 88.0 mg/kg/injection, schedule: Q01DX001 (ip), vehicle: saline
  T/C: 109 % of control
[14]
  T/C: 104 % of control
dose: 133.0 mg/kg/injection, schedule: Q01DX001 (ip), vehicle: saline
  T/C: 101 % of control
[13]
  T/C: 97 % of control
[15]
  T/C: 93 % of control and 242 % of control
[3]
  T/C: 101 % of control

## CC(=O)OC1CCC2(C)C(=CC(=O)C3C2CCC2(C)C(C(C)CCCC(C)C)CCC32)C1 (stereo not drawn)
dose: 100.0 mg/kg/injection, schedule: Q01DX009 (sc), vehicle: steriod suspending solution
  T/C: 108 % of control
dose: 100.0 mg/kg/injection, schedule: Q04DX003 (sc), vehicle: steriod suspending solution
  T/C: 91 % of control
dose: 200.0 mg/kg/injection, schedule: Q01DX009 (sc), vehicle: steriod suspending solution
  T/C: 110 % of control
dose: 200.0 mg/kg/injection, schedule: Q04DX003 (sc), vehicle: steriod suspending solution
  T/C: 91 % of control
dose: 400.0 mg/kg/injection, schedule: Q01DX009 (sc), vehicle: steriod suspending solution
  T/C: 115 % of control
dose: 400.0 mg/kg/injection, schedule: Q04DX003 (sc), vehicle: steriod suspending solution
  T/C: 102 % of control

## N=c1c2[nH]cnc2ncn1O
[14]
  T/C: 89 % of control
[15]
  T/C: 94 % of control
dose: 400.0 mg/kg/injection, schedule: Q01DX001 (ip), vehicle: carboxymethylcellulose (CMC)
  T/C: 100 % of control

## COc1ccc(NC(=O)Nc2cc(C(F)(F)F)ccc2Cl)cc1
[10]
  T/C: 88 % of control
[11]
  T/C: 91 % of control
[12]
  T/C: 86 % of control

## Cc1ncc(C(C)(O)c2ccccc2)n1C (stereo not drawn)
dose: 100.0 mg/kg/injection, schedule: Q01DX009 (ip), vehicle: saline with Tween-80
  T/C: 105 % of control
dose: 200.0 mg/kg/injection, schedule: Q01DX009 (ip), vehicle: saline with Tween-80
  T/C: 94 % of control

## O=C(Nc1cccc(S(=O)(=O)F)c1)/C(=C/c1ccc([N+](=O)[O-])cc1)c1ccccc1
dose: 100.0 mg/kg/injection, schedule: Q01DX001 (ip), vehicle: Klucel (hydroxypropylcellulose) (HPC)
  T/C: 89 % of control
dose: 200.0 mg/kg/injection, schedule: Q01DX001 (ip), vehicle: Klucel (hydroxypropylcellulose) (HPC)
  T/C: 99 % of control
dose: 400.0 mg/kg/injection, schedule: Q01DX001 (ip), vehicle: Klucel (hydroxypropylcellulose) (HPC)
  T/C: 99 % of control

## O/N=C(/C(=N/O)c1ccccc1)c1ccccc1.O/N=C(/C(=N/O)c1ccccc1)c1ccccc1.[Ni]
dose: 100.0 mg/kg/injection, schedule: Q04DX002 (ip), vehicle: saline with Tween-80
  T/C: 97 % of control
dose: 200.0 mg/kg/injection, schedule: Q04DX002 (ip), vehicle: saline with Tween-80
  T/C: 97 % of control
dose: 400.0 mg/kg/injection, schedule: Q04DX002 (ip), vehicle: saline with Tween-80
  T/C: 93 % of control
